Like-named read-outs stand apart in the source and are kept apart here. Marks after values point to notes of the source that are not given here.
Compound | Log P (pH 2.7) | further results
CCOC(=O)C(C#N)=C(NC(C)c1ccc(C(C)C)cc1)c1cn(C)nc1C(F)F (racemic) [Compound 550] | 4.2^[a] | 
CCOC(=O)C(C#N)=C(NC(C)c1ccc(Cl)cc1Cl)c1cn(C)nc1C(F)F (racemic) [Compound 552] | 3.96^[a] | 
CCOC(=O)C(C#N)=C(NC(C)c1ccccc1Cl)c1cn(C)nc1C(F)F (racemic) [Compound 553] | 3.46^[a] | 
CCOC(=O)C(C#N)=C(NC(C)c1cccc(Cl)c1)c1cn(C)nc1C(F)F (racemic) [Compound 554] | 3.55^[a] | 
CCOC(=O)C(C#N)=C(NC(c1ccc(N(C)C)cc1)C(F)(F)F)c1cn(C)nc1C(F)F (racemic) [Compound 556] | 3.78^[a] | 
CCOC(=O)C(C#N)=C(NC(CC)c1ccccc1OC)c1cn(C)nc1C(F)F (racemic) [Compound 557] | 3.62^[a] | 
CCOC(=O)C(C#N)=C(NC(CC)c1cccc(Cl)c1)c1cn(C)nc1C(F)F (racemic) [Compound 558] | 3.87^[a] | 
COCC(C)NC(=C(C#N)C(=O)OC)c1cccnc1Cl (racemic) [Compound 564] |  | Log P (pH 7.5): 2.13
COC(=O)C(C#N)=C(NC(C)CSC)c1cccnc1Cl (racemic) [Compound 576] |  | Log P (pH 7.5): 2.38
CCOC(=O)C(C#N)=C(NC(C)CN(C)C)c1cn(C)nc1C(F)F (racemic) [Compound 578] | 1.13^[a] | 
CCOC(=O)C(C#N)=C(NCC(C)N)c1cn(C)nc1C(F)F (racemic) [Compound 579] | 0.84^[a] | 
CCOC(=O)C(C#N)=C(NC(C)CN(C)C)c1ncc(C(F)(F)F)cc1Cl (racemic) [Compound 583] | 1.63^[a] | 
CCOC(=O)C(C#N)=C(NC(C)CN(C)C)c1c(C)nn(C)c1F (racemic) [Compound 584] | 0.96^[a] | 
COC(=O)C(C#N)=C(NC(C)CN(C)C)c1cn(C)nc1C(F)F (racemic) [Compound 587] | 0.82^[a] | 
CCOC(=O)C(C#N)=C(NC(C)CN(C)C)c1nsc(Cl)c1Cl (racemic) [Compound 588] | 1.41^[a] | 
CCOC(=O)C(C#N)=C(NC(C)CN)c1ncc(C(F)(F)F)cc1Cl (racemic) [Compound 589] | 1.59^[a] | 
CCOC(=O)C(C#N)=C(NC(C)C(N)=O)c1cn(C)nc1C(F)F (racemic) [Compound 590] | 1.5^[a] | 
COC(=O)C(C#N)=C(NC(C)CN)c1cn(C)nc1C(F)F (racemic) [Compound 591] | 0.58^[a] | 
CCOC(=O)C(C#N)=C(NC(C)C(N)=O)c1ncc(C(F)(F)F)cc1Cl (racemic) [Compound 592] | 2.17^[a] | 
CCOC(=O)C(C#N)=C(NC(C)C(=O)Nc1ccc2ccccc2c1)c1sccc1C(F)(F)F (racemic) [Compound 653] | 4.01^[a] | 
CCOC(=O)C(C#N)=C(NC(C)COc1c(C)cccc1C)c1sccc1C(F)(F)F (racemic) [Compound 654] | 4.89^[a] | 
CCOC(=O)C(C#N)=C(NC(C)COC)c1sccc1C(F)(F)F (racemic) [Compound 655] | 3.31^[a] | 
CCOC(=O)C(C#N)=C(NC(C)C(=O)OCC)c1sccc1C(F)(F)F (racemic) [Compound 656] | 3.44^[a] | 
CCOC(=O)C(C#N)=C(NC(C(=O)OC)C(C)C)c1sccc1C(F)(F)F (racemic) [Compound 658] | 3.62^[a] | 
CCOC(=O)C(C#N)=C(NC(C)C(N)=O)c1sccc1C(F)(F)F (racemic) [Compound 660] | 2.13^[a] | 

Compound | Log P (pH 2.7) | further results
COC(=O)C(C#N)=C(NC(C)C(=O)Nc1ccc2ccccc2c1)c1sc(C)nc1C(F)(F)F (racemic) [Compound 661] | 3.69^[a] | 
COC(=O)C(C#N)=C(NC(C)COc1c(C)cccc1C)c1sc(C)nc1C(F)(F)F (racemic) [Compound 662] | 4.34^[a] | 
COCC(C)NC(=C(C#N)C(=O)OC)c1sc(C)nc1C(F)(F)F (racemic) [Compound 663] | 2.75^[a] | 
CCOC(=O)C(C)NC(=C(C#N)C(=O)OC)c1sc(C)nc1C(F)(F)F (racemic) [Compound 664] | 2.96^[a] | 
COC(=O)C(C#N)=C(NC(C(=O)OC)C(C)C)c1sc(C)nc1C(F)(F)F (racemic) [Compound 666] | 3.29^[a] | 
COC(=O)C(C#N)=C(NC(C)C(N)=O)c1sc(C)nc1C(F)(F)F (racemic) [Compound 668] | 1.78^[a] | 
CCOC(=O)C(C#N)=C(NC(C)C(=O)Nc1ccc2ccccc2c1)c1sccc1Br (racemic) [Compound 669] | 3.89^[a] | 
CCOC(=O)C(C#N)=C(NC(C)COc1c(C)cccc1C)c1sccc1Br (racemic) [Compound 670] | 4.86^[a] | 
CCOC(=O)C(C#N)=C(NC(C)COC)c1sccc1Br (racemic) [Compound 671] | 3.17^[a] | 
CCOC(=O)C(C#N)=C(NC(C)C(=O)OCC)c1sccc1Br (racemic) [Compound 672] | 3.33^[a] | 
CCOC(=O)C(C#N)=C(NC(C(=O)OC)C(C)C)c1cn(C)nc1C(F)F (racemic) [Compound 674] | 2.84^[a] | 
CCOC(=O)C(C#N)=C(NC(C)C(=O)Nc1ccc2ccccc2c1)c1sc(C)nc1C(F)(F)F (racemic) [Compound 676] | 3.99^[a] | 
CCOC(=O)C(C#N)=C(NC(C)COc1c(C)cccc1C)c1sc(C)nc1C(F)(F)F (racemic) [Compound 677] | 4.7^[a] | 
CCOC(=O)C(C#N)=C(NC(C)COC)c1sc(C)nc1C(F)(F)F (racemic) [Compound 678] | 3.11^[a] | 
CCOC(=O)C(C#N)=C(NC(C)C(=O)OCC)c1sc(C)nc1C(F)(F)F (racemic) [Compound 679] | 3.29^[a] | 
CCOC(=O)C(C#N)=C(NC(C(=O)OC)C(C)C)c1sc(C)nc1C(F)(F)F (racemic) [Compound 681] | 3.64^[a] | 
CCOC(=O)C(C#N)=C(NC(C)CC(C)C)c1cccnc1Cl (racemic) [Compound 778] |  | Log P (pH 7.5): 3.62
CCOC(=O)C(C#N)=C(NC(C)CC(C)C)c1cc(C)oc1C (racemic) [Compound 779] | 4.35^[a] | 
CCOC(=O)C(C#N)=C(NC(C)CC(C)C)c1cn(C)nc1C(F)F (racemic) [Compound 780] | 3.46^[a] | 
CCOC(=O)C(C#N)=C(NC(C)CC(C)C)c1sccc1C(F)(F)F (racemic) [Compound 781] | 4.54^[a] | 
COC(=O)C(C#N)=C(NC(C)CC(C)C)c1sc(C)nc1C(F)(F)F (racemic) [Compound 782] | 3.9^[a] | 
CCOC(=O)C(C#N)=C(NC(C)CC(C)C)c1sccc1Br (racemic) [Compound 783] | 4.46^[a] | 
CCOC(=O)C(C#N)=C(NC(C)CC(C)C)c1sc(C)nc1C(F)(F)F (racemic) [Compound 784] | 4.29^[a] | 
CCOC(=O)C(C#N)=C(NC(C)CC(C)C)c1ccsc1Br (racemic) [Compound 785] | 4.41^[a] | 
CCOC(=O)C(C#N)=C(NC(C)C(F)(F)F)c1cccnc1OC (racemic) [Compound 807] |  | Log P (pH 2.3): 3.05; Log P (pH 7.5): 3.04

Compound | Log P (pH 2.7) | further results
CCOC(=O)C(C#N)=C(NC(C)C(F)(F)F)c1cn(C)nc1OC (racemic) [Compound 808] | 2.82^[a] | 
CCOC(=O)C(C#N)=C(NC(C)C(F)(F)F)c1sc(Cl)nc1Cl (racemic) [Compound 809] | 3.75^[a] | 
CCOC(=O)C(C#N)=C(NC(C)C(F)(F)F)c1cc(Cl)sc1Cl (racemic) [Compound 810] | 4.11^[a] | 
CCOC(=O)C(C#N)=C(NC(C)C(F)(F)F)c1cn(C)cc1C(F)(F)F (racemic) [Compound 812] | 3.64^[a] | 
CCCCCCC(C)NC(=C(C#N)C(=O)OCC)c1c(C)nn(C)c1F (racemic) [Compound 813] | 4.51^[a] | 
CCCCCCC(C)NC(=C(C#N)C(=O)OCC)c1sccc1Br (racemic) [Compound 814] | 5.48^[a] | 
CCCCCCC(C)NC(=C(C#N)C(=O)OCC)c1sccc1C(F)(F)F (racemic) [Compound 815] | 5.48^[a] | 
CCCCCCC(C)NC(=C(C#N)C(=O)OC)c1sc(C)nc1C(F)(F)F (racemic) [Compound 816] | 4.86^[a] | 
CCCCCCC(C)NC(=C(C#N)C(=O)OCC)c1cn(C)nc1C(F)F (racemic) [Compound 817] | 4.36^[a] | 
CCCCCCC(C)NC(=C(C#N)C(=O)OCC)c1sc(C)nc1C(F)(F)F (racemic) [Compound 818] | 5.22^[a] | 
CCCCCCC(C)NC(=C(C#N)C(=O)OCC)c1cccnc1Cl (racemic) [Compound 819] |  | Log P (pH 2.3): 4.53; Log P (pH 7.5): 4.55
CCCCCCC(C)NC(=C(C#N)C(=O)OCC)c1ccsc1Br (racemic) [Compound 820] | 5.41^[a] | 
CCOC(=O)C(C#N)=C(NC(C)CC)c1nc(Cl)ccc1Cl (racemic) [Compound 837] | 3.67^[a] | 
CCOC(=O)C(C#N)=C(NC(C)CC)c1cnc(Cl)cc1Cl (racemic) [Compound 838] | 3.64^[a] | 
CCOC(=O)C(C#N)=C(NC(C)CC)c1ncc(Cl)cc1Cl (racemic) [Compound 839] | 3.78^[a] | 
CCOC(=O)C(C#N)=C(NC(C)CC)c1cccnc1C(F)(F)F (racemic) [Compound 840] | 3.27^[a] | 
CCOC(=O)C(C#N)=C(NC(C)CC)c1nc(SC)ncc1Br (racemic) [Compound 841] | 3.89^[a] | 
CCOC(=O)C(C#N)=C(NC(C)CC)c1cccnc1C(F)F (racemic) [Compound 842] | 2.87^[a] | 
CCOC(=O)C(C#N)=C(NC(C)CC)c1cnccc1C(F)(F)F (racemic) [Compound 843] | 3.17^[a] | 
CCCCCC(C)NC(=C(C#N)C(=O)OCC)c1sccc1Br (racemic) [Compound 846] | 5.03^[a] | 
CCCCCC(C)NC(=C(C#N)C(=O)OCC)c1sccc1C(F)(F)F (racemic) [Compound 849] | 5.05^[a] | 
CCCCCC(C)NC(=C(C#N)C(=O)OC)c1sc(C)nc1C(F)(F)F (racemic) [Compound 852] | 4.41^[a] | 
CCCCCC(C)NC(=C(C#N)C(=O)OCC)c1cn(C)nc1C(F)F (racemic) [Compound 855] | 3.94^[a] | 
CCCCCC(C)NC(=C(C#N)C(=O)OCC)c1sc(C)nc1C(F)(F)F (racemic) [Compound 858] | 4.81^[a] | 
CCCCCC(C)NC(=C(C#N)C(=O)OCC)c1cccnc1Cl (racemic) [Compound 859] |  | Log P (pH 7.5): 4.1

Source: patent publication US8476197B2, “Aminopropenoates as fungicides” (priority 2009, dated 2013)
